The Kinase Knowledgebase extract (Sharma et al. 2016)

Molecular target: MAPK14 (UniProt Q16539)
Test: Enzyme Assay

Chain of MAPK14 (Q16539 whole entry, looked up): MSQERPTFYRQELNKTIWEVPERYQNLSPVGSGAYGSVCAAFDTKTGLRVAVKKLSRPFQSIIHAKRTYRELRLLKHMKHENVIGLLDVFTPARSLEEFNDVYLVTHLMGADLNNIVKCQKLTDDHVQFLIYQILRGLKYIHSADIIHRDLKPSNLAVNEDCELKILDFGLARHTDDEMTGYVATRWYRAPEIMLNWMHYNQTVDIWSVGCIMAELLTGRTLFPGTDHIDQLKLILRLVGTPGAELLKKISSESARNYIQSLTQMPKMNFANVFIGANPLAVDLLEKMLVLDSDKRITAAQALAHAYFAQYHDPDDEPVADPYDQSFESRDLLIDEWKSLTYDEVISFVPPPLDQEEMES

SMILES | IC50
Nc1ncccc1OCc1ccc(F)c(F)c1 | < 1000 µM
Nc1ncccc1OCc1cccc(OC(F)(F)F)c1 | < 10000 µM
Cc1nc(-c2cc(C(=O)Nc3ccc(F)c(COc4cnccn4)c3)no2)cs1 | < 200 µM
O=C1c2ccccc2C(=O)N1c1ccc(Cl)c(COc2cccnc2)c1 | < 1000 µM
CC(C)(C)c1ccc(-n2nc(C3CC3)cc2NC(=O)Nc2ccc(F)c(COc3cnccn3)c2)cc1 | < 200 µM
COc1ccccc1COc1cccnc1N | < 1000 µM
Nc1ncccc1OCc1ccc(F)cc1Cl | < 1000 µM
Nc1cnc(OCc2ccccc2)cn1 | < 1000 µM
O=C(CN1CCOCC1)Nc1cnc(OCc2c(Cl)cccc2Cl)cn1 | < 200 µM
Nc1nccnc1OCc1c(Cl)cccc1Cl | < 1000 µM
O=C(Nc1ccc(F)c(COc2cccnc2)c1)c1cccc(F)c1 | < 200 µM
O=S(=O)(Nc1ccc(Cl)c(COc2cccnc2)c1)c1ccccc1 | < 200 µM
Nc1ncccc1OCc1csc2ccccc12 | < 1000 µM
Nc1ncccc1OCc1ccc(Cl)cc1Cl | < 1000 µM
C[S+]([O-])c1nnc(NC(=O)Nc2ccc(F)c(COc3cnccn3)c2)s1 (centres undefined) | < 1000 µM
CC(C)(C)OC(=O)Nc1ccc(Cl)c(COc2cnccn2)c1 | < 1000 µM
Cc1cc(C)cc(COc2cccnc2N)c1 | < 200 µM
Nc1ncccc1OCc1c(F)cc(F)cc1F | < 1000 µM
Cc1cccc(COc2cccnc2N)c1F | < 1000 µM
O=C(Nc1ccc(F)c(COc2cnccn2)c1)c1cc(On2nnc3ccccc32)nc(Cl)n1 | < 1000 µM

SMILES | IC50
Nc1ncc(OCc2cccc3ccccc23)nc1Br | < 1000 µM
Cc1noc(-c2ccccc2)c1C(=O)Nc1ccc(F)c(COc2cnccn2)c1 | < 200 µM
CCN(CC)C(=O)Nc1cnc(OCc2c(Cl)cccc2Cl)cn1 | < 200 µM
O=C1c2ccccc2CN1c1ccc(F)c(COc2cccnc2)c1 | < 1000 µM
Nc1ccc(Cl)c(COc2cnccn2)c1 | < 1000 µM
CC(C)(C)C(=O)Nc1cnc(OCc2c(Cl)cccc2Cl)cn1 | < 200 µM
O=S(=O)(c1ccccc1)N(c1ccc(Cl)c(COc2cccnc2)c1)S(=O)(=O)c1ccccc1 | < 1000 µM
O=C(CN1CCCCC1)Nc1cnc(OCc2c(Cl)cccc2Cl)cn1 | < 200 µM
O=C(NCCO)c1cnc(OCc2c(Cl)cccc2Cl)cn1 | < 1000 µM
CN1CCCC(CNC(=O)c2cnc(OCc3c(Cl)cccc3Cl)cn2)C1 (centres undefined) | < 1000 µM
Nc1ccncc1OCc1cccc2ccccc12 | < 1000 µM
Nc1ncccc1OCc1cccc(-c2ccccc2)c1 | < 200 µM
Clc1cccc(Cl)c1COc1ccc(NCc2ccccc2)nc1 | < 200 µM
CNc1cnc(OCc2c(Cl)cccc2Cl)cn1 | < 200 µM
Nc1ncccc1OCc1cccc(Cl)c1F | < 1000 µM
CC(=O)Nc1ccc(Cl)c(COc2cccnc2)c1 | < 1000 µM
Nc1ncccc1OCc1cccc(C(=O)NCc2cccc3ccccc23)c1 | < 1000 µM
Clc1ncccc1OCc1ccccc1 | < 2000 µM
CCNC(=O)c1cnc(OCc2c(Cl)cccc2Cl)cn1 | < 1000 µM
O=C(CC1CCOCC1)Nc1cnc(OCc2c(Cl)cccc2Cl)cn1 | < 200 µM

SMILES | IC50
CC(C)(CO)C(=O)Nc1cnc(OCc2c(Cl)cccc2Cl)cn1 | < 200 µM
O=C(Nc1cccc(COc2cccnc2)c1)c1ccccc1 | < 200 µM
Clc1cccc(Cl)c1COc1ccc(N2CCOCC2)nc1 | < 1000 µM
Nc1nccnc1OCc1cccc2ccccc12 | < 1000 µM
Nc1ncccc1OCc1c(F)cccc1Cl | < 1000 µM
Nc1ncccc1OCc1cccc2ccoc12 | < 1000 µM
Nc1cccc(COc2cncc(Cl)n2)c1 | < 1000 µM
OCCNc1cnc(OCc2c(Cl)cccc2Cl)cn1 | < 200 µM
Nc1ncccc1OCc1cccc(C(=O)NCC2CC2)c1 | < 1000 µM
c1ccc(CNc2cccc(COc3cnccn3)c2)cc1 | < 1000 µM
Clc1cccc(Cl)c1COc1cnc(N2CCOCC2)cn1 | < 200 µM
CC1(C(=O)Nc2cnc(OCc3c(Cl)cccc3Cl)cn2)CC1 | < 200 µM
Nc1ncc(OCc2ccccc2)nc1Br | < 1000 µM
Nc1cnc(OCc2c(Cl)cccc2Cl)cn1 | < 200 µM
O=C(Nc1ccc(F)c(COc2cnccn2)c1)Nc1nnc(-c2ccccc2)s1 | < 200 µM
Cc1cc(C)c2nc(NC(=O)Nc3ccc(F)c(COc4cnccn4)c3)sc2c1 | < 1000 µM
CN1CCC(CC(=O)Nc2cnc(OCc3c(Cl)cccc3Cl)cn2)CC1 | < 200 µM
NS(=O)(=O)CCNC(=O)c1cnc(OCc2c(Cl)cccc2Cl)cn1 | < 1000 µM
Nc1ncccc1OCc1cccc(Cl)c1 | < 1000 µM
COc1cc(C(=O)Nc2ccc(F)c(COc3cnccn3)c2)nc(Cl)n1 | < 1000 µM

Further lines, results first:

IC50 | SMILES
< 20 µM | O=C(Nc1ccc(F)c(COc2cnccn2)c1)Nc1nc(-c2ccccc2)cs1
< 200 µM | Nc1ncccc1OCc1ccc(Cl)c(F)c1
< 200 µM | c1cc(COc2cnccn2)cc(Nc2nc3ccccc3o2)c1
< 2 µM | O=C(Nc1ccc(F)c(COc2cnccn2)c1)c1nnc(-c2ccccc2)o1
< 200 µM | O=C(Nc1ccc(Cl)c(COc2cccnc2)c1)c1ccncc1
< 2 µM | O=C(Nc1ccc(F)c(COc2cnccn2)c1)Nc1cc(-c2ccccc2)[nH]n1
< 200 µM | OCCNc1ccc(OCc2ccccc2)cn1
< 200 µM | Clc1cccc(Cl)c1COc1cnccn1
< 2 µM | CC(C)(C)c1cc(NC(=O)Nc2ccc(Cl)c(COc3cccnc3)c2)n(-c2ccccc2)n1
< 20 µM | O=C(Nc1ccccc1)Nc1ccc(Cl)c(COc2cccnc2)c1
< 20 µM | CC(C)(C)c1cc(NC(=O)Nc2ccc(F)c(COc3cnccn3)c2)n(-c2nc3ccccc3s2)n1
< 2 µM | O=C(Nc1ccc(F)c(COc2cnccn2)c1)Nc1cc(-c2ccc(Cl)cc2)nn1-c1ccc(F)cc1
< 2 µM | O=C(Nc1ccc(F)c(COc2cnccn2)c1)c1cccc(Oc2ccccc2)c1
< 20 µM | Clc1cccc(Cl)c1COc1cnc(NCc2ccccc2)cn1
< 2 µM | CC(CO)(CO)NC(=O)c1cnc(OCc2c(Cl)cccc2Cl)cn1
< 2 µM | CC(C)(C)c1cc(NC(=O)Nc2ccc(F)c(COc3cnccn3)c2)n(-c2ccccc2)n1
< 2 µM | CC(C)(C)c1cc(NC(=O)Nc2ccc(F)c(COc3cnccn3)c2)n(-c2ccc(S(C)(=O)=O)cc2)n1
< 20 µM | CC(C)(C)n1nc(-c2ccccc2)cc1NC(=O)Nc1ccc(F)c(COc2cnccn2)c1
< 20 µM | O=C(Cn1ccnc1)Nc1cnc(OCc2c(Cl)cccc2Cl)cn1
< 2 µM | O=C(Nc1ccc(F)c(COc2cnccn2)c1)Nc1nnc(Cc2ccccc2)s1

IC50 | SMILES
< 2 µM | O=C(Nc1ccc(F)c(COc2cnccn2)c1)Nc1nnc(CC2CC2)s1
< 20 µM | O=C(Nc1ccc(Cl)c(COc2cccnc2)c1)c1cccc(Cl)c1
< 2 µM | O=C(Nc1cnc(OCc2c(Cl)cccc2Cl)cn1)N1CCOCC1
< 2 µM | CC(C)(C)c1cc(NC(=O)Nc2ccc(F)c(COc3cnccn3)c2)n(-c2ccc(Cl)cc2)n1
< 2 µM | Cc1ccc(-n2nc(C(C)(C)C)cc2NC(=O)Nc2ccc(F)c(COc3cnccn3)c2)cc1
< 20 µM | O=C(Nc1ccc(Cl)c(COc2cccnc2)c1)Oc1ccccc1
< 2 µM | CC(C)(C)c1cccc(C(=O)Nc2ccc(Cl)c(COc3cccnc3)c2)c1
< 20 µM | O=C(Nc1ccc(F)c(COc2cnccn2)c1)Nc1n[nH]cc1-c1ccccc1
< 2 µM | CC(C)(C)c1cc(NC(=O)Nc2ccc(F)c(COc3cnccn3)c2)n(-c2ccncc2)n1
< 20 µM | CC(Nc1cnc(OCc2c(Cl)cccc2Cl)cn1)c1ccccc1 (centres undefined)
< 100 µM | Cc1ccc2ccccc2c1COc1cccnc1N
< 20 µM | CC(C)(C)c1cc(C(=O)Nc2ccc(F)c(COc3cnccn3)c2)n(Cc2ccccc2)n1
< 20 µM | CC(C)(C)c1cc(NC(=O)Nc2ccc(Cl)c(COc3cnccn3)c2)[nH]n1
< 20 µM | O=C(Nc1ccc(F)c(COc2cccnc2)c1)c1cncc(N2CCOCC2)n1
< 20 µM | O=C(Nc1cccc(COc2cccnc2)c1)c1cc(F)cc(N2CCOCC2)c1
< 2 µM | O=C(Nc1ccc(F)c(COc2cccnc2)c1)c1cc(F)cc(N2CCOCC2)c1
< 2 µM | O=C(Nc1ccc(F)c(COc2cnccn2)c1)Nc1cc(-c2ccccc2)nn1-c1ccccc1
< 2 µM | CC(C)(C)c1cccc(C(=O)Nc2ccc(F)c(COc3cnccn3)c2)c1
< 20 µM | CC(C)(C)c1cc(C(=O)Nc2ccc(F)c(COc3cnccn3)c2)n(Cc2ccc(F)cc2)n1
< 2 µM | O=C(Nc1ccc(F)c(COc2cnccn2)c1)Nc1cc(C2CCCO2)nn1-c1ccc(F)cc1 (centres undefined)

IC50 | SMILES
< 2 µM | O=C(Nc1ccc(Cl)c(COc2cccnc2)c1)c1ccnc(N2CCOCC2)c1
< 2 µM | Cc1cc(-n2nc(C(C)(C)C)cc2NC(=O)Nc2ccc(F)c(COc3cnccn3)c2)nc(C)n1
< 100 µM | Nc1ncccc1OCc1ccccc1C(F)(F)F
< 20 µM | CC(C)(C)c1ccccc1NC(=O)Nc1ccc(F)c(COc2cccnc2)c1
< 20 µM | CC(C)c1nnc(NC(=O)Nc2ccc(F)c(COc3cnccn3)c2)s1
< 2 µM | O=C(Nc1ccc(F)c(COc2cnccn2)c1)Nc1nnc(C2CCCO2)s1 (centres undefined)
< 20 µM | O=C(Nc1ccc(Cl)c(COc2cnccn2)c1)c1ccccc1
< 20 µM | CC(C)(C)c1csc(NC(=O)Nc2ccc(F)c(COc3cnccn3)c2)n1
< 2 µM | CC(C)(C)c1cc(NC(=O)Nc2ccc(F)c(COc3cnccn3)c2)n(Cc2ccccc2)n1
< 2 µM | CC(C)(CO)NC(=O)Nc1cnc(OCc2c(Cl)cccc2Cl)cn1
< 20 µM | Nc1ncccc1OCc1cc(NC(=O)c2ccccc2)ccc1Cl
< 2 µM | O=C(Nc1ccc(F)c(COc2cnccn2)c1)Nc1cc(-c2ccc(Cl)cc2)nn1-c1ccccc1
< 20 µM | CC(C)(C)c1ccc(C(=O)Nc2ccc(F)c(COc3cnccn3)c2)cc1
< 2 µM | CC(C)(C)c1cc(NC(=O)Nc2ccc(F)c(COc3cnccn3)c2)n(-c2ccc(F)cc2F)n1
< 2 µM | CC(C)(C)c1cc(C(=O)Nc2ccc(F)c(COc3cnccn3)c2)cc(C(C)(C)C)c1
< 20 µM | O=C(Nc1ccc(Cl)c(COc2cccnc2)c1)c1ccccc1
< 2 µM | O=C(Nc1ccc(F)c(COc2cnccn2)c1)Nc1cc(C2CCOCC2)nn1-c1ccc(F)cc1
< 2 µM | O=C(Nc1ccc(F)c(COc2cnccn2)c1)c1cc(N2CCOCC2)nc(N2CCOCC2)n1
< 10 µM | Nc1ncccc1OCc1ccccc1-c1ccccc1
